Data reported in US20020137929A1, “1 - (3-heterocyclylphenyl) isothiourea, -isourea, -guanidine and -amidine herbicidal agents” (Intellectual Property Department, BASF Aktiengesellschaft, priority 1998, published 2002).

Legend:
[1] = system: TRZAWR (Wheat, Winter, cv Riband); assay: Preemergence herbicidal evaluation; format: in vivo, Triticum aestivum; conditions: rated 4-5 weeks after treatment
In short: (§1)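 Greenhouse preemergence test: seed-soil mix sown on ~1 inch soil; aqueous acetone spray at equivalent of ~0.0156–0.500 kg/ha; greenhouse-held and watered; scored 0–9 visually at 4–5 weeks.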

[2] = system: GLXMAW (Soybean, Williams); assay: Preemergence herbicidal evaluation; format: in vivo, Glycine max, (L.) Merr. cv Williams; conditions: rated 4-5 weeks after treatment
In short: as §1

[3] = system: ABUTH (Velvetleaf); assay: Postemergence herbicidal evaluation; format: in vivo, Abutilon theophrasti; conditions: postemergence
In short: (§2)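 Seedlings grown about two weeks were sprayed at 40 psi with compound dispersed in 50/50 acetone/water plus 0.5% TWEEN 20, at about 0.0156 to 0.500 kg/ha. Plants were kept in the greenhouse and scored 4–5 weeks later on a 0–9 visual scale against untreated controls.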

[4] = system: ZEAMX (Corn, Field); assay: Postemergence herbicidal evaluation; format: in vivo, Zea mays; conditions: postemergence
In short: as §2

[5] = system: CHEAL (Lambsquarters, Common); assay: Postemergence herbicidal evaluation; format: in vivo, Chenopodium album; conditions: postemergence
In short: as §2

[6] = system: IPOHE (Morningglory, Ivyleaf); assay: Preemergence herbicidal evaluation; format: in vivo, Ipomoea hederacea; conditions: rated 4-5 weeks after treatment
In short: as §1

[7] = system: CHEAL (Lambsquarters, Common); assay: Preemergence herbicidal evaluation; format: in vivo, Chenopodium album; conditions: rated 4-5 weeks after treatment
In short: as §1

[8] = system: SETVI (Foxtail, Green); assay: Postemergence herbicidal evaluation; format: in vivo, Setaria viridis; conditions: postemergence
In short: as §2

[9] = system: ABUTH (Velvetleaf); assay: Preemergence herbicidal evaluation; format: in vivo, Abutilon theophrasti; conditions: rated 4-5 weeks after treatment
In short: as §1

[10] = system: IPOHE (Morningglory, Ivyleaf); assay: Postemergence herbicidal evaluation; format: in vivo, Ipomoea hederacea; conditions: postemergence
In short: as §2

[11] = system: ZEAMX (Corn, Field); assay: Preemergence herbicidal evaluation; format: in vivo, Zea mays; conditions: rated 4-5 weeks after treatment
In short: as §1

[12] = system: CASOB (Sicklepod); assay: Preemergence herbicidal evaluation; format: in vivo, Cassia obtusifolia; conditions: rated 4-5 weeks after treatment
In short: as §1

[13] = system: CYPIR (Rice Flatsedge); assay: Postemergence weed control under flooded paddy conditions; format: in vivo, Cyperus iria; conditions: postemergence weeds, rated 3 to 4 weeks after treatment
In short: (§3)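 Containers holding 3–5 cm weeds and rice at 1.5–2.5 leaves are flooded to 1.5–3 cm above soil. Compound in 50/50 v/v aqueous/acetone is then added directly to the water, about 0.0313–0.500 kg/ha. Plants are kept in the greenhouse and rated 0–9 visually at 3–4 weeks.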

[14] = system: ORYSAT (Rice, Tebonnet); assay: Postemergence herbicidal evaluation; format: in vivo, Oryza sativa, (L.) Tebonnet; conditions: postemergence
In short: as §2

[15] = system: ECHCG (Barnyardgrass); assay: Postemergence herbicidal evaluation; format: in vivo, Echinochloa crus-galli; conditions: postemergence
In short: as §2

[16] = system: ECHCG (Barnyardgrass); assay: Preemergence herbicidal evaluation; format: in vivo, Echinochloa crus-galli; conditions: rated 4-5 weeks after treatment
In short: as §1

[17] = system: CYPSE (Flatsedge); assay: Postemergence weed control under flooded paddy conditions; format: in vivo, Cyperus serotinus; conditions: postemergence weeds, rated 3 to 4 weeks after treatment
In short: as §3

C=CCOC(=O)CC1SC(=Nc2cc(-n3c(=O)cc(C(F)(F)F)n(C)c3=O)c(F)cc2Cl)N(CC=C)C1=O (centres unmarked) [Compound 65, Allyl 3-allyl-2-{(2-chloro-5-[3,6-dihydro-3-methyl-2,6-dioxo-4-(trifluoromethyl)-1(2H)-pyrimidinyl]-4-fluorophenyl}imino}-4-oxo-5-thiazolidineacetate]
Preemergence herbicidal rating TRZAWR ([1]; rate 0.0313 kg/ha): 0.0 | Preemergence herbicidal rating TRZAWR ([1]; rate 0.0625 kg/ha): 1.0 | Preemergence herbicidal rating TRZAWR ([1]; rate 0.1250 kg/ha): 1.0 | Preemergence herbicidal rating TRZAWR ([1]; rate 0.2500 kg/ha): 3.0 | Preemergence herbicidal rating GLXMAW ([2]; rate 0.0156 kg/ha): 1.0 | Preemergence herbicidal rating GLXMAW ([2]; rate 0.0313 kg/ha): 0.0 | Preemergence herbicidal rating GLXMAW ([2]; rate 0.0625 kg/ha): 1.0 | Preemergence herbicidal rating GLXMAW ([2]; rate 0.1250 kg/ha): 2.0 | Preemergence herbicidal rating GLXMAW ([2]; rate 0.2500 kg/ha): 5.0 | ABUTH herbicidal rating ([3]; rate 0.0158 kg/ha): 9.0 | ABUTH herbicidal rating ([3]; rate 0.0315 kg/ha): 9.0 | ABUTH herbicidal rating ([3]; rate 0.0630 kg/ha): 9.0 | ZEAMX herbicidal rating ([4]; rate 0.0158 kg/ha): 8.0 | ZEAMX herbicidal rating ([4]; rate 0.0315 kg/ha): 8.0 | ZEAMX herbicidal rating ([4]; rate 0.0630 kg/ha): 7.5 | CHEAL herbicidal rating ([5]; rate 0.0158 kg/ha): 9.0 | CHEAL herbicidal rating ([5]; rate 0.0315 kg/ha): 9.0 | CHEAL herbicidal rating ([5]; rate 0.0630 kg/ha): 9.0 | Preemergence herbicidal rating IPOHE ([6]; rate 0.0156 kg/ha): 0.0 | Preemergence herbicidal rating IPOHE ([6]; rate 0.0313 kg/ha): 0.0 | Preemergence herbicidal rating IPOHE ([6]; rate 0.0625 kg/ha): 1.0 | Preemergence herbicidal rating IPOHE ([6]; rate 0.1250 kg/ha): 9.0 | Preemergence herbicidal rating IPOHE ([6]; rate 0.2500 kg/ha): 7.0 | Preemergence herbicidal rating CHEAL ([7]; rate 0.0156 kg/ha): 9.0 | Preemergence herbicidal rating CHEAL ([7]; rate 0.0313 kg/ha): 9.0 | Preemergence herbicidal rating CHEAL ([7]; rate 0.0625 kg/ha): 9.0 | Preemergence herbicidal rating CHEAL ([7]; rate 0.1250 kg/ha): 9.0 | Preemergence herbicidal rating CHEAL ([7]; rate 0.2500 kg/ha): 9.0 | SETVI herbicidal rating ([8]; rate 0.0158 kg/ha): 7.0 | SETVI herbicidal rating ([8]; rate 0.0315 kg/ha): 7.0 | SETVI herbicidal rating ([8]; rate 0.0630 kg/ha): 9.0 | Preemergence herbicidal rating ABUTH ([9]; rate 0.0156 kg/ha): 2.0 | Preemergence herbicidal rating ABUTH ([9]; rate 0.0313 kg/ha): 9.0 | Preemergence herbicidal rating ABUTH ([9]; rate 0.0625 kg/ha): 9.0 | Preemergence herbicidal rating ABUTH ([9]; rate 0.1250 kg/ha): 9.0 | Preemergence herbicidal rating ABUTH ([9]; rate 0.2500 kg/ha): 9.0 | IPOHE herbicidal rating ([10]; rate 0.0158 kg/ha): 9.0 | IPOHE herbicidal rating ([10]; rate 0.0315 kg/ha): 9.0 | IPOHE herbicidal rating ([10]; rate 0.0630 kg/ha): 9.0 | Preemergence herbicidal rating ZEAMX ([11]; rate 0.0156 kg/ha): 0.0 | Preemergence herbicidal rating ZEAMX ([11]; rate 0.0313 kg/ha): 0.0 | Preemergence herbicidal rating ZEAMX ([11]; rate 0.0625 kg/ha): 1.0 | Preemergence herbicidal rating ZEAMX ([11]; rate 0.1250 kg/ha): 2.0 | Preemergence herbicidal rating ZEAMX ([11]; rate 0.2500 kg/ha): 4.0 | Preemergence herbicidal rating CASOB ([12]; rate 0.0156 kg/ha): 0.0 | Preemergence herbicidal rating CASOB ([12]; rate 0.0313 kg/ha): 0.0 | Preemergence herbicidal rating CASOB ([12]; rate 0.0625 kg/ha): 1.0 | Preemergence herbicidal rating CASOB ([12]; rate 0.1250 kg/ha): 1.0 | Preemergence herbicidal rating CASOB ([12]; rate 0.2500 kg/ha): 2.0 | Herbicidal rating CYPIR ([13]; Rate 0.0313 kg/ha): 6.0 | Herbicidal rating CYPIR ([13]; Rate 0.0625 kg/ha): 7.0 | Herbicidal rating CYPIR ([13]; Rate 0.1250 kg/ha): 7.0 | Herbicidal rating CYPIR ([13]; Rate 0.2500 kg/ha): 8.0 | ORYSAT herbicidal rating ([14]; rate 0.0158 kg/ha): 4.0 | ORYSAT herbicidal rating ([14]; rate 0.0315 kg/ha): 6.0 | ORYSAT herbicidal rating ([14]; rate 0.0630 kg/ha): 6.0 | ECHCG herbicidal rating ([15]; rate 0.0158 kg/ha): 3.0 | ECHCG herbicidal rating ([15]; rate 0.0315 kg/ha): 7.0 | ECHCG herbicidal rating ([15]; rate 0.0630 kg/ha): 7.0 | Preemergence herbicidal rating ECHCG ([16]; rate 0.0156 kg/ha): 0.0 | Preemergence herbicidal rating ECHCG ([16]; rate 0.0313 kg/ha): 0.0 | Preemergence herbicidal rating ECHCG ([16]; rate 0.0625 kg/ha): 0.0 | Preemergence herbicidal rating ECHCG ([16]; rate 0.1250 kg/ha): 2.0 | Preemergence herbicidal rating ECHCG ([16]; rate 0.2500 kg/ha): 5.0 | Herbicidal rating CYPSE ([17]; Rate 0.0313 kg/ha): 0.0 | Herbicidal rating CYPSE ([17]; Rate 0.0625 kg/ha): 0.0 | Herbicidal rating CYPSE ([17]; Rate 0.1250 kg/ha): 0.0 | Herbicidal rating CYPSE ([17]; Rate 0.2500 kg/ha): 0.0
